Experimental data from patent US6362188B1, “Farnesyl protein transferase inhibitors” (Schering Corporation, priority 1998, dated 2002).

What was measured:
Human tumor cells = assay: Soft Agar Assay (anchorage-independent growth); type: cell-based; details: colony outgrowth in soft agar, stated as a range for the group
Method: Anchorage-independent growth is a characteristic of tumorigenic cell lines. Human tumor cells can be suspended in growth medium containing 0.3% agarose and an indicated concentration of a farnesyl transferase inhibitor. The solution can be overlayed onto growth medium solidified with 0.6% agarose containing the same concentration of farnesyl transferase inhibitor as the top layer. After the top layer is solidified, plates can be incubated for 10-16 days at 37° C. under 5% CO2 to allow colony outgrowth. After incubation, the colonies can be stained by overlaying the agar with a solution of MTT (3-[4,5-dimethyl-thiazol-2-yl]-2,5-diphenyltetrazolium bromide, Thiazolyl blue) (1 mg/mL in PBS). Colonies can be counted and the IC50's can be determined.

IC50 (Human tumor cells) [nM]	melting point [°C]	SMILES
0.05 to 30	98 to 130	Cc1ncn(CC2CCCN(C(=O)C3CN(C4c5ccc(Cl)cc5CCc5cccnc54)CCN3C(=O)OC3CCCCC3)C2)c1C (single isomer, unassigned) [47(G)]
–	106 to 125	Cc1ncn(CC2CCCN(C(=O)C3CN(C4c5ccc(Cl)cc5CCc5cccnc54)CCN3C(=O)OC3CCCCC3)C2)c1C (single isomer, unassigned) [47(H)]
0.5 to 30	110 to 119	Cc1nccn1CC1CCCN(C(=O)C2CN(C3c4ccc(Cl)cc4CCc4cccnc43)CCN2C(=O)OC(C)(C)C)C1 (single isomer, unassigned) [Example 27]
0.5 to 30	109 to 124	Cc1cn(CC2CCCN(C(=O)C3CN(C4c5ccc(Cl)cc5CCc5cccnc54)CCN3C(=O)OC(C)(C)C)C2)cn1 (single isomer, unassigned) [Example 29]
0.5 to 30	92 to 101	Cc1nccn1CC1CCCN(C(=O)C2CN(C3c4ccc(Cl)cc4CCc4cccnc43)CCN2C(=O)OC(C)C)C1 (single isomer, unassigned) [Example 38]
–	111 to 125	Cc1nccn1CC1CCCN(C(=O)C2CN(C3c4ccc(Cl)cc4CCc4cccnc43)CCN2C(=O)OC(C)C)C1 (single isomer, unassigned) [Example 39]
–	107 to 112	Cc1nccn1CC1CCCN(C(=O)C2CN(C3c4ccc(Cl)cc4CCc4cccnc43)CCN2C(=O)OC(C)C)C1 (single isomer, unassigned) [Example 40]
–	95 to 100	Cc1nccn1CC1CCCN(C(=O)C2CN(C3c4ccc(Cl)cc4CCc4cccnc43)CCN2C(=O)OC(C)C)C1 (single isomer, unassigned) [Example 41]
0.5 to 30	112 to 135	Cc1nccn1CC1CCCN(C(=O)C2CN(C3c4ccc(Cl)cc4CCc4cccnc43)CCN2C(=O)OC2CCCCC2)C1 (single isomer, unassigned) [Example 44]
–	108 to 123	Cc1nccn1CC1CCCN(C(=O)C2CN(C3c4ccc(Cl)cc4CCc4cccnc43)CCN2C(=O)OC2CCCCC2)C1 (single isomer, unassigned) [Example 45]
–	91 to 94	Cc1nccn1CC1CCCN(C(=O)C2CN(C3c4ccc(Cl)cc4CCc4cccnc43)CCN2C(=O)OC2CCCCC2)C1 (single isomer, unassigned) [Example 46]
–	100 to 106	Cc1nccn1CC1CCCN(C(=O)C2CN(C3c4ccc(Cl)cc4CCc4cccnc43)CCN2C(=O)OC2CCCCC2)C1 (single isomer, unassigned) [Example 47]
0.05 to 30	99 to 107	Cc1cn(CC2CCCN(C(=O)C3CN(C4c5ccccc5CCc5cc(Cl)cnc54)CCN3C(=O)OC(C)(C)C)C2)cn1 (single isomer, unassigned) [Example 291]
–	110 to 123	Cc1cn(CC2CCCN(C(=O)C3CN(C4c5ccccc5CCc5cc(Cl)cnc54)CCN3C(=O)OC(C)(C)C)C2)cn1 (single isomer, unassigned) [Example 293]
0.05 to 30	110 to 112	CCc1cn(CC2CCCN(C(=O)C3CN(C4c5ccc(Cl)cc5CCc5cccnc54)CCN3C(=O)OC(C)(C)C)C2)cn1 (centres unmarked) [35(A)]
–	104 to 106	CCc1cn(CC2CCCN(C(=O)C3CN(C4c5ccc(Cl)cc5CCc5cccnc54)CCN3C(=O)OC(C)(C)C)C2)cn1 (centres unmarked) [35(C)]
–	79 to 81	CCc1cn(CC2CCCN(C(=O)C3CN(C4c5ccc(Cl)cc5CCc5cccnc54)CCN3C(=O)OC(C)(C)C)C2)cn1 (centres unmarked) [35(D)]
0.05 to 30	115 to 120	Cc1cn(CC2CCCN2C(=O)C2CN(C3c4ccc(Cl)cc4CCc4cccnc43)CCN2C(=O)OC(C)(C)C)cn1 (centres unmarked) [35(F)]
–	117 to 120	Cc1cn(CC2CCCN(C(=O)C3CN(C4c5ccc(Cl)cc5CCc5cccnc54)CCN3C(=O)OC(C)C)C2)cn1 (centres unmarked) [41(A)]
–	101 to 120	Cc1cn(CC2CCCN(C(=O)C3CN(C4c5ccc(Cl)cc5CCc5cccnc54)CCN3C(=O)OC(C)C)C2)cn1 (centres unmarked) [41(B)]
0.05 to 30	104 to 108	CC(C)OC(=O)N1CCN(C2c3ccc(Cl)cc3CCc3cccnc32)CC1C(=O)N1CCCC(Oc2cccnc2)C1 (centres unmarked) [41(C)]
–	122 to 127	Cc1cn(CC2CCCN(C(=O)C3CN(C4c5ccc(Cl)cc5CCc5cccnc54)CCN3C(=O)OC3CCCCC3)C2)cn1 (centres unmarked) [47(A)]
–	133 to 139	Cc1cn(CC2CCCN(C(=O)C3CN(C4c5ccc(Cl)cc5CCc5cccnc54)CCN3C(=O)OC3CCCCC3)C2)cn1 (centres unmarked) [47(B)]
0.05 to 30	66 to 68	CCc1cn(CC2CCCN(C(=O)C3CN(C4c5ccc(Cl)cc5CCc5cccnc54)CCN3C(=O)OC3CCCCC3)C2)cn1 (centres unmarked) [47(D)]
0.05 to 30	113 to 115	O=C(C1CN(C2c3ccc(Cl)cc3CCc3cccnc32)CCN1C(=O)OC1CCCCC1)N1CCCC(Cc2cnc[nH]2)C1 (centres unmarked) [47(I)]
0.05 to 30	101 to 123	Cn1cncc1CC1CCCN(C(=O)C2CN(C3c4ccc(Cl)cc4CCc4cccnc43)CCN2C(=O)OC2CCCCC2)C1 (centres unmarked) [47(K)]

IC50 (Human tumor cells) [nM]	melting point [°C]	SMILES
0.05 to 30	117 to 120	O=C(C1CN(C2c3ccc(Cl)cc3CCc3cccnc32)CCN1C(=O)OC1CCCCC1)N1CCCC(Oc2cccnc2)C1 (centres unmarked) [47(U)]
0.5 to 30	126 to 131	Cc1nccn1CC1CCCN(C(=O)C2CN(C3c4ccc(Cl)cc4CCc4cc(Br)cnc43)CCN2C(=O)OC(C)(C)C)C1 (centres unmarked) [Example 3]
0.5 to 30	114 to 121	Cc1cn(CC2CCCN(C(=O)C3CN(C4c5ccc(Cl)cc5CCc5cc(Br)cnc54)CCN3C(=O)OC(C)(C)C)C2)cn1 (centres unmarked) [Example 4.1]
–	131 to 135	Cc1cn(CC2CCCN(C(=O)C3CN(C4c5ccc(Cl)cc5CCc5cc(Br)cnc54)CCN3C(=O)OC(C)(C)C)C2)cn1 (centres unmarked) [Example 4.2]
–	128 to 133	Cc1nccn1CC1CCCN(C(=O)C2CN(C3c4ccc(Cl)cc4CCc4cc(Br)cnc43)CCN2C(=O)OC(C)(C)C)C1 (centres unmarked) [Example 4]
0.5 to 30	123 to 134	CN1CCN(C(=O)C2CN(C3c4ccc(Cl)cc4CCc4cc(Br)cnc43)CCN2C(=O)OC(C)(C)C)CC1Cn1ccnc1 (centres unmarked) [Example 5]
–	179 to 182	CC(C)(C)OC(=O)N1CCN(C2c3ccc(Cl)cc3CCc3cc(Br)cnc32)CC1C(=O)N1CCS(=O)(=O)C(Cn2ccnc2)C1 (centres unmarked) [Example 8]
0.5 to 30	130 to 134	CC(C)(C)OC(=O)N1CCN([C@@H]2c3ccc(Cl)cc3CCc3cc(Br)cnc32)C[C@@H]1C(=O)N1CCC[C@H](Cn2ccnc2)C1 [Example 10]
–	132 to 136	CC(C)NC(=O)N1CCN([C@@H]2c3ccc(Cl)cc3CCc3cc(Br)cnc32)C[C@@H]1C(=O)N1CCC[C@@H](Cn2ccnc2)C1 [Example 17]
–	112 to 120	CC(C)(C)NC(=O)N1CCN([C@@H]2c3ccc(Cl)cc3CCc3cc(Br)cnc32)C[C@@H]1C(=O)N1CCC[C@H](Cn2ccnc2)C1 [Example 18]
–	123 to 132	CC(C)OC(=O)N1CCN([C@@H]2c3ccc(Cl)cc3CCc3cc(Br)cnc32)C[C@@H]1C(=O)N1CCC[C@H](Cn2ccnc2)C1 [Example 19]
–	137 to 139	CC(C)(C)NC(=O)N1CCN(C2c3ccc(Cl)cc3CCc3cc(Br)cnc32)C[C@@H]1C(=O)N1CCC[C@@H]1Cn1ccnc1 (some centres unmarked) [Example 21]
–	135 to 141	CS(=O)(=O)N1CCN(C2c3ccc(Cl)cc3CCc3cc(Br)cnc32)C[C@@H]1C(=O)N1CCC[C@@H]1Cn1ccnc1 (some centres unmarked) [Example 22]
–	124 to 143	CC(C)(C)OC(=O)N1CCN(C2c3ccc(Cl)cc3CCc3cccnc32)CC1C(=O)N1CCCC(Cn2ccnc2)C1 (centres unmarked) [Example 25]
–	123 to 132	Cc1cn(CC2CCCN(C(=O)C3CN(C4c5ccc(Cl)cc5CCc5cccnc54)CCN3C(=O)OC(C)C)C2)cn1 (centres unmarked) [Example 36]
–	95 to 111	Cc1cn(CC2CCCN(C(=O)C3CN(C4c5ccc(Cl)cc5CCc5cccnc54)CCN3C(=O)OC(C)C)C2)cn1 (centres unmarked) [Example 37]
–	99 to 113	Cc1cn(CC2CCCN(C(=O)C3CN(C4c5ccc(Cl)cc5CCc5cccnc54)CCN3C(=O)OC3CCCCC3)C2)cn1 (centres unmarked) [Example 42]
–	108 to 118	Cc1cn(CC2CCCN(C(=O)C3CN(C4c5ccc(Cl)cc5CCc5cccnc54)CCN3C(=O)OC3CCCCC3)C2)cn1 (centres unmarked) [Example 43]
–	105 to 113	O=C([C@H]1CN(C2c3ccc(Cl)cc3CCc3cc(Cl)cnc32)CCN1C(=O)OC1CCCCC1)N1CCCC(Oc2cccnc2)C1 (some centres unmarked) [Example 254A]
0.05 to 30	–	Cc1nccn1CC1CCCN(C(=O)C2CN(C3c4ncccc4CCc4cccc(Cl)c43)CCN2C(=O)OC(C)(C)C)C1 (centres unmarked) [Example 395]
–	98 to 112	Cc1cn(C[C@@H]2CCCN(C(=O)[C@H]3CN(C4c5ccccc5CCc5ccccc54)CCN3C(=O)OC3CCCCC3)C2)cn1 [Example 414]
0.05 to 30	–	CC1(Cn2ccnc2)CCCN(C(=O)[C@H]2CN([C@H]3c4ccc(Cl)cc4CCc4cccnc43)CCN2C(=O)OC2CCCCC2)C1 (some centres unmarked) [Example 415]
0.05 to 30	–	Cc1cn(C[C@@]2(C)CCCN(C(=O)[C@H]3CN([C@H]4c5ccc(Cl)cc5CCc5cccnc54)CCN3C(=O)OC3CCCCC3)C2)cn1 [Example 416]
0.05 to 30	–	Cc1cn(C[C@]2(C)CCCN(C(=O)[C@H]3CN([C@H]4c5ccc(Cl)cc5CCc5cccnc54)CCN3C(=O)OC3CCCCC3)C2)cn1 [Example 417]
0.05 to 30	–	CC1CCC(Cn2ccnc2)CN1C(=O)[C@H]1CN([C@H]2c3ccc(Cl)cc3CCc3cccnc32)CCN1C(=O)OC1CCCCC1 (some centres unmarked) [Example 424]
